Experimental data reported in patent US11198695B2, “Fused ring derivative having MGAT-2 inhibitory activity” (Shionogi & Co., Ltd., priority 2017, dated 2021).

Molecular target: recombinant human MGAT2 (Homo sapiens (Human), UniProt Q3SYC2)
Assay: Measurement of human MGAT2 inhibitory activity
Type: biochemical
Settings: read-out: IC50 (concentration exhibiting 50% enzyme inhibition), Table 53
Summary of the method: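 RapidFire ESI-MS read-out of the diolein/diolein-d5 peak ratio gave % inhibition, with no-enzyme and full-enzyme wells as 100% and 0%. Reactions ran 1 h at room temperature at pH 7.4 (phosphate, 2 mmol/L DTT), using Flag-tagged human MGAT2 membranes from Sf9 cells and a substrate solution of 30 μmol/L 2-oleoylglycerol and 10 μmol/L oleoyl-CoA.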

Sequence of recombinant human MGAT2 (Q3SYC2 whole entry): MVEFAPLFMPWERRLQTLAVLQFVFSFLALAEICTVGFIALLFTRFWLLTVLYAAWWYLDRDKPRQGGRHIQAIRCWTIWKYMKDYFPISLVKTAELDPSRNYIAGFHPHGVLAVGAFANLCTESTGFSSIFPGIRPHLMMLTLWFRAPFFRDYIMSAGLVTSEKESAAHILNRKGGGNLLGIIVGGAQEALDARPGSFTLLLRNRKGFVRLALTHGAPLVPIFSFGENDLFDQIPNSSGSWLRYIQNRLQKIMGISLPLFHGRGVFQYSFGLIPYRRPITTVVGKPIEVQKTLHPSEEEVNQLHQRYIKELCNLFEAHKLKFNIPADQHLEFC

| Compound | IC50 [nM] |
| --- | --- |
| CS(=O)(=O)CC(=O)Nc1c2c(nn1-c1ccc(C#N)cn1)CC1(CN(c3cccc(C(F)(F)F)c3)C1)NC2=O [II-89] | 10.8 |
| CS(=O)(=O)CC(=O)Nc1c2c(nn1-c1ccc(C#N)cn1)CC1(CN(c3ccc(C(F)(F)F)nc3)C1)NC2=O [II-90] | 40 |
| CS(=O)(=O)CC(=O)Nc1c2c(nn1CCC1CC1)C[C@@]1(NC2=O)c2ccc(OCC(F)(F)F)cc2CC1(F)F [II-92] | 44.3 |
| CS(=O)(=O)CC(=O)Nc1c2c(nn1-c1ccc(C#N)cn1)CC1(Cc3cc(F)c(F)cc3C1)NC2=O [II-102] | 56.3 |
| CS(=O)(=O)CC(=O)Nc1c2c(nn1-c1ccc(C#N)c(F)c1)C[C@]1(CCc3cc(OCC(F)(F)F)ccc31)NC2=O [II-104] | 11.5 |
| CS(=O)(=O)CC(=O)Nc1c2c(nn1-c1ccon1)C[C@]1(CCc3cc(OCC(F)(F)F)ccc31)NC2=O [II-107] | 40.7 |
| N#Cc1ccc(-n2nc3c(c2C(=O)NCC2(CO)CCCC2)C(=O)N[C@@]2(CCc4cc(OCC(F)(F)F)ccc42)C3)nc1 [II-109] | 23.1 |
| N#Cc1ccc(-n2nc3c(c2C(=O)NC2(C#N)CC2)C(=O)N[C@@]2(CCc4cc(OCC(F)(F)F)ccc42)C3)nc1 [II-110] | 30.4 |
| CS(=O)(=O)CCNC(=O)c1c2c(nn1-c1ccc(C#N)cn1)C[C@]1(CCc3cc(OCC(F)(F)F)ccc31)NC2=O [II-111] | 50.8 |
| N#Cc1ccc(-n2nc3c(c2C(=O)NCCOC(F)(F)F)C(=O)N[C@@]2(CCc4cc(OCC(F)(F)F)ccc42)C3)nc1 [II-114] | 60.3 |
| CC(C)(CNC(=O)c1c2c(nn1-c1ccc(C#N)cn1)C[C@]1(CCc3cc(OCC(F)(F)F)ccc31)NC2=O)C(N)=O [II-115] | 204 |
| N#Cc1ccc(-n2nc3c(c2C(=O)N[C@H]2C[C@H](O)C2)C(=O)N[C@@]2(CCc4cc(OCC(F)(F)F)ccc42)C3)nc1 [II-117] | 37.9 |
| N#Cc1ccc(-n2nc3c(c2C(=O)NCC2(O)CCOC2)C(=O)N[C@@]2(CCc4cc(OCC(F)(F)F)ccc42)C3)nc1 (stereo partly shown) [II-119] | 26.8 |
| COCCCNC(=O)c1c2c(nn1-c1ccc(C#N)cn1)C[C@]1(CCc3cc(OCC(F)(F)F)ccc31)NC2=O [II-123] | 21.7 |
| N#Cc1ccc(-n2nc3c(c2C(=O)NCC(F)(F)F)C(=O)N[C@@]2(CCc4cc(OCC(F)(F)F)ccc42)C3)nc1 [II-124] | 19.6 |
| COCCNC(=O)c1c2c(nn1-c1ccc(C#N)cn1)C[C@]1(CCc3cc(OCC(F)(F)F)ccc31)NC2=O [II-125] | 63.5 |
| N#Cc1ccc(-n2nc3c(c2C(=O)NCCC(F)(F)F)C(=O)N[C@@]2(CCc4cc(OCC(F)(F)F)ccc42)C3)nc1 [II-126] | 12.7 |
| N#Cc1ccc(-n2nc3c(c2C(=O)NCC(N)=O)C(=O)N[C@@]2(CCc4cc(OCC(F)(F)F)ccc42)C3)nc1 [II-127] | 39.2 |
| N#Cc1ccc(-n2nc3c(c2C(=O)NCC(O)c2ccccn2)C(=O)N[C@@]2(CCc4cc(OCC(F)(F)F)ccc42)C3)nc1 (stereo partly shown) [II-129] | 202 |
| N#Cc1ccc(-n2nc3c(c2C(=O)N[C@H]2CC[C@H](O)CC2)C(=O)N[C@@]2(CCc4cc(OCC(F)(F)F)ccc42)C3)nc1 [II-130] | 130 |
| N#Cc1ccc(-n2nc3c(c2C(=O)NC2CCNC2=O)C(=O)N[C@@]2(CCc4cc(OCC(F)(F)F)ccc42)C3)nc1 (stereo partly shown) [II-132] | 193 |
| N#Cc1ccc(-n2nc3c(c2C(=O)N[C@H]2CC[C@@H](O)C2)C(=O)N[C@@]2(CCc4cc(OCC(F)(F)F)ccc42)C3)nc1 [II-133] | 188 |
| N#Cc1ccc(-n2nc3c(c2C(=O)NCCS(N)(=O)=O)C(=O)N[C@@]2(CCc4cc(OCC(F)(F)F)ccc42)C3)nc1 [II-134] | 17.2 |
| CC(C)(O)CNC(=O)c1c2c(nn1-c1ccc(C#N)cn1)C[C@]1(CCc3cc(OCC(F)(F)F)ccc31)NC2=O [II-135] | 60.6 |
| Cc1ccc(-n2nc3c(c2NC(=O)CS(C)(=O)=O)C(=O)N[C@@]2(CCc4cc(OCC(F)(F)F)ccc42)C3)cn1 [II-138] | 45.7 |
| CS(=O)(=O)CC(=O)Nc1c2c(nn1-c1ccc(OC(F)F)cc1)C[C@]1(CCc3cc(OCC(F)(F)F)ccc31)NC2=O [II-141] | 12.8 |
| Cc1cc(-n2nc3c(c2NC(=O)CS(C)(=O)=O)C(=O)N[C@@]2(CCc4cc(OCC(F)(F)F)ccc42)C3)ccc1C#N [II-148] | 12.3 |

Stronger by IC50, values ahead:

| IC50 [nM] | Compound |
| --- | --- |
| 2.79 | N#Cc1ccc(-n2nc3c(c2NC(=O)C2CCS(=O)(=O)C2)C(=O)N[C@@]2(CCc4cc(OCC(F)(F)F)ccc42)C3)nc1 (stereo partly shown) [II-91] |
| 4.29 | C[C@@]1(c2ccc(OCC(F)(F)F)cc2F)Cc2nn(-c3ccc(C#N)cn3)c(NC(=O)CS(C)(=O)=O)c2C(=O)N1 [II-95] |
| 8.88 | C[C@@]1(c2ccc(OCC(F)(F)F)cc2F)Cc2nn(-c3ccc(F)c(F)c3)c(NC(=O)CS(C)(=O)=O)c2C(=O)N1 [II-96] |
| 3.97 | CS(=O)(=O)CC(=O)Nc1c2c(nn1CCCOC(F)(F)F)C[C@@]1(NC2=O)c2ccc(OCC(F)(F)F)cc2CC1(F)F [II-97] |
| 7.1 | CS(=O)(=O)CC(=O)Nc1c2c(nn1CCC1CC1)C[C@@]1(CCc3cc(OC4CC4)ccc31)NC2=O [II-98] |
| 9.59 | CS(=O)(=O)CC(=O)Nc1c2c(nn1CCC1CC1)C[C@@]1(CCc3cc(OCCOCC(F)F)ccc31)NC2=O [II-99] |
| 4.76 | CS(=O)(=O)CC(=O)Nc1c2c(nn1CCC1CC1)C[C@@]1(CCc3cc(OCCOCC(F)(F)F)ccc31)NC2=O [II-100] |
| 1.25 | CS(=O)(=O)CC(=O)Nc1c2c(nn1CCC1CC1)C[C@@]1(CCc3cc(OCCCC(F)(F)F)ccc31)NC2=O [II-101] |
| 2.68 | CS(=O)(=O)CC(=O)Nc1c2c(nn1-c1ccc(C3CC3)nn1)C[C@]1(CCc3cc(OCC(F)(F)F)ccc31)NC2=O [II-105] |
| 1.72 | CS(=O)(=O)CC(=O)Nc1c2c(nn1-c1ccc(C(F)(F)F)nn1)C[C@]1(CCc3cc(OCC(F)(F)F)ccc31)NC2=O [II-106] |
| 2.51 | N#Cc1ccc(-n2nc3c(c2C(=O)NCC2(O)CCC2)C(=O)N[C@@]2(CCc4cc(OCC(F)(F)F)ccc42)C3)nc1 [II-108] |
| 5.28 | N#Cc1ccc(-n2nc3c(c2C(=O)NCC2(O)CC2)C(=O)N[C@@]2(CCc4cc(OCC(F)(F)F)ccc42)C3)nc1 [II-112] |
| 8.23 | N#Cc1ccc(-n2nc3c(c2C(=O)NC2(C#N)CCCCC2)C(=O)N[C@@]2(CCc4cc(OCC(F)(F)F)ccc42)C3)nc1 [II-113] |
| 3.96 | N#Cc1ccc(-n2nc3c(c2C(=O)NCC2(CO)CCC2)C(=O)N[C@@]2(CCc4cc(OCC(F)(F)F)ccc42)C3)nc1 [II-116] |
| 6.26 | N#Cc1ccc(-n2nc3c(c2C(=O)NCC2(O)COC2)C(=O)N[C@@]2(CCc4cc(OCC(F)(F)F)ccc42)C3)nc1 [II-118] |
| 9.29 | Cc1ccc(-n2nc3c(c2NC(=O)CS(C)(=O)=O)C(=O)N[C@@]2(CCc4cc(N5CC(F)(F)C5)ccc42)C3)nc1 [II-120] |
| 5.68 | Cc1ccc(-n2nc3c(c2NC(=O)CS(C)(=O)=O)C(=O)N[C@@]2(CCc4cc(C(F)(F)F)ccc42)C3)nc1 [II-122] |
| 10.2 | N#CCNC(=O)c1c2c(nn1-c1ccc(C#N)cn1)C[C@]1(CCc3cc(OCC(F)(F)F)ccc31)NC2=O [II-128] |
| 5.79 | N#Cc1ccc(-n2nc3c(c2C(=O)NCC2(CO)CC2)C(=O)N[C@@]2(CCc4cc(OCC(F)(F)F)ccc42)C3)nc1 [II-131] |

| IC50 [nM] | Compound |
| --- | --- |
| 7.42 | Cc1ccc(-n2nc3c(c2NC(=O)CS(C)(=O)=O)C(=O)N[C@@]2(CCc4cc(OCC(F)(F)F)ccc42)C3)cc1F [II-136] |
| 4.79 | CS(=O)(=O)CC(=O)Nc1c2c(nn1-c1ccc(Cl)c(F)c1)C[C@]1(CCc3cc(OCC(F)(F)F)ccc31)NC2=O [II-137] |
| 3.15 | Cc1cc(-n2nc3c(c2NC(=O)CS(C)(=O)=O)C(=O)N[C@@]2(CCc4cc(OCC(F)(F)F)ccc42)C3)nnc1C [II-139] |
| 6.4 | Cc1cnnc(-n2nc3c(c2NC(=O)CS(C)(=O)=O)C(=O)N[C@@]2(CCc4cc(OCC(F)(F)F)ccc42)C3)c1 [II-140] |
| 4.03 | CS(=O)(=O)CC(=O)Nc1c2c(nn1-c1ccc(C#N)cn1)C[C@]1(CCc3cc(C(F)(F)F)ccc31)NC2=O [II-142] |
| 0.706 | CS(=O)(=O)CC(=O)Nc1c2c(nn1-c1ccc(C#N)cn1)C[C@]1(CCc3cc(OCC(F)(F)F)ccc31)NC2=O [II-143] |
| 1.05 | CS(=O)(=O)CC(=O)Nc1c2c(nn1-c1ccc(C#N)cn1)C[C@]1(CCc3cc(OCC(F)(F)F)c(F)cc31)NC2=O [II-144] |
| 6.43 | CCOc1ccc2c(c1)OCC[C@]21Cc2nn(-c3ccc(C)cn3)c(NC(=O)CS(C)(=O)=O)c2C(=O)N1 [II-145] |
| 2.55 | Cc1ccc(-n2nc3c(c2NC(=O)CS(C)(=O)=O)C(=O)N[C@@]2(CCOc4cc(OCC(F)F)ccc42)C3)nc1 [II-146] |
| 4.92 | Cc1ccc(-n2nc3c(c2NC(=O)CS(C)(=O)=O)C(=O)N[C@@]2(CCOc4cc(Cl)ccc42)C3)nc1 [II-147] |
| 9.01 | Cc1cc(-n2nc3c(c2NC(=O)CS(C)(=O)=O)C(=O)N[C@@]2(CCc4cc(OCC(F)(F)F)ccc42)C3)ccc1F [II-149] |
| 1.33 | Cc1cc(-n2nc3c(c2NC(=O)CS(C)(=O)=O)C(=O)N[C@@]2(CCOc4cc(OCC(F)(F)F)ccc42)C3)no1 [II-150] |
| 1.96 | CS(=O)(=O)CC(=O)Nc1c2c(nn1CCC1CC1)C[C@]1(CCc3cc(OCC(F)(F)F)c(F)cc31)NC2=O [II-152] |
| 4.94 | Cc1ccc(-n2nc3c(c2NC(=O)CS(C)(=O)=O)C(=O)N[C@@]2(CCOc4cc(OC(C)C)ccc42)C3)nc1 [II-153] |
| 5.58 | Cc1ccc(-n2nc3c(c2NC(=O)CS(C)(=O)=O)C(=O)N[C@@]2(CCOc4cc(N5CC(F)(F)C5)ccc42)C3)nc1 [II-154] |
| 3.6 | Cc1ccc(-n2nc3c(c2NC(=O)CS(C)(=O)=O)C(=O)N[C@@]2(CCc4cc(C5CC5)ccc42)C3)nc1 [II-156] |
| 3.83 | Cc1ccc(-n2nc3c(c2NC(=O)CS(C)(=O)=O)C(=O)N[C@@]2(CCc4cc(OCC(C)(F)F)ccc42)C3)nc1 [II-157] |
| 8.06 | Cc1ccc(-n2nc3c(c2NC(=O)CS(C)(=O)=O)C(=O)N[C@@]2(CCc4cc(OCC(F)F)ccc42)C3)nc1 [II-158] |
